Results as given in patent publication US4256729A, “N,N'-Bis-(2,3-dihydroxypr opyl)-2,4,6-triiodo-5-(2-keto-L-gulonamido)isophthalamide and radiological compositions containing same” (Mallinckrodt, Inc., priority 1979, dated 1981).
Like-named read-outs stand apart in the source and are kept apart here.

How the values were obtained:
[1] = Solubility in water; assay type: physicochemical
Description: (§1) The product was dissolved in water (sterile water for injection, 1 liter). The solution was evaporated to about 800 ml under reduced pressure at 55° and treated with active charcoal (Darco G-60, 7.0 g) at room temperature overnight. The solution was filtered (first through a Whatman #4 filter paper and then through a Millipore 0.22 μ filter paper), and the clear filtrate was evaporated under reduced pressure at 50°-60° to give a white glassy solid. The product, which was dried under vacuum at 50°-60° for 5 hours, weighed 53.0 g (60% yield). The compound softens at 190°-195° and decomposes above 220°. […] Nmr and ir data are consistent with the assigned structure IX. Elemental analysis: Calcd. for C20 H26 I3 N3 O12 : C, 27.26; H, 2.97; I, 43.21; N, 4.77; Found: C, 26.92; H, 3.15; I, 42.92; N, 4.40.
2. Solubility: ≥100% w/v.

[2] = tested on: Swiss mice; assay: Acute Intracerebral Toxicity in Mice; settings: intracerebral, 250-400 mg I/ml; seven day observation; 95% limits 1,203-1,772
Description: (§2) The following pharmacological studies were conducted on N,N'-bis-(2,3-dihydroxypropyl)-2,4,6-triiodo-5-(2-keto-L-gulonamido)isophthalamide prepared by Method II (PRODUCT).
(§3) Employing a slightly modified version of the techique developed by Haley and McCormick (Brit. J. Pharmacol. 12: 12-15, 1957), young adult male and female Swiss mice received injections of a solution of the PRODUCT directly into lateral ventricles and brain tissue.

[3] = in vivo; settings: mouse, in vivo, icv or intrathecal
Description: as §2, §3

[4] = Stability in aqueous solution by tlc and lc analysis; assay type: physicochemical; settings: Method I product
Description: as §1

[5] = tested on: dogs; assay: Acute intracisternal Neurotoxicity in Dogs; assay type: in vivo; settings: dosage range 200-244 mg I/kg, constant 0.5 ml/kg volume dose
Description: Adult dogs of either sex were employed for this procedure and were briefly anesthetized with thiopentol sodium during the injection of a solution of the compound. The PRODUCT was administered into cerebrospinal fluid at the cisterna magna at varying concentrations but at a constant 0.5 ml/kg volume dose. Animals were thereafter observed for neurotoxicity with the following results.

[6] = tested on: Sprague Dawley rats; assay: Acute Intracisternal Toxicity in Rats; settings: intracisternal, 444 mg I/ml; two day observation; 95% limits 582-951
Description: as §2
(§4) The technique described by Melartin et al. (Invest. Radiol. 5: 13-21, 1970) was utilized to evaluate lethal effects of a solution of the PRODUCT after injection into cerebrospinal fluid at the cisterna magna. Young adult male and female Sprague Dawley rats were used. After dosing, the animals were housed individually and observed for immediate reactions and periodically for a two day observation period.

[7] = in vivo; settings: rat, in vivo
Description: as §2, §4

[8] = tested on: cardiovascular and renal excretory systems; assay: Radiographic observations in mouse (whole body radiographs after i.v. injection); assay type: in vivo; settings: male mouse, pentobarbital anesthetized; 10,000 mg I/kg i.v. (28% I solution), 1/2 ml/minute; immediately after administration; Method I product
Description: A male mouse (20 g) was anesthetized with sodium pentobarbital (60 mg/kg, i.p.; Diabutal®, Diamond Laboratories).

[9] = tested on: cisterna magna, basal cisterns, and cervical subarachnoid space; assay: Radiographic observations in rat (lateral radiographs of head and thorax after intracisternal injection); assay type: in vivo; settings: male rat, pentobarbital anesthetized; 140 mg I/kg intracisternally (28% I solution); immediately and 3 minutes after administration; Method I product
Description: A pentobarbital anesthetized male rat received 140 mg I/kg of the N,N'-bis-(2,3-dihydroxypropyl)-2,4,6-triiodo-5-(2-keto-L-gulonamido)isophthalamide prepared by Method I, (28% I solution) intracisternally.

[10] = tested on: Swiss mice; assay: Acute Intraveneous Toxicity in Mice; settings: i.v., 1 ml/min, 400 mg I/ml; seven day observation; 95% limits 18,161-20,510
Description: as §2
(§5) A solution of the PRODUCT was injected into the lateral tail vein of young adult male and female Swiss mice at a rate of 1 ml/min.

[11] = in vivo; settings: mouse, in vivo, iv
Description: as §2, §5

O=C(Nc1c(I)c(C(=O)NCC(O)CO)c(I)c(C(=O)NCC(O)CO)c1I)C(=O)[C@@H](O)[C@H](O)[C@@H](O)CO (stereo partly drawn) [IX, N,N'-Bis-(2,3-dihydroxypropyl)-2,4,6-triiodo-5-(2-keto-L-gulonamido)isophthalamide]
solubility ([1]; Method II product): ≥ 100 % w/v | solubility ([1]; water, Method I product, read-out: solubility in water): ≥ 1000 mg/mL | LD50 /(95% Confidence Limits) [2]: 1,460 mg I/kg | LD50 at 168 h [3]: 3380 mg/kg | stability in aqueous solution [4]: stable in aqueous solution | Minimum Convulsion Dose [5]: > 244 mg I/kg | LD50 /(95% Confidence Limits) [6]: 744 mg I/kg | LD50 at 48 h [7]: 1720 mg/kg | opacification on whole body radiographs [8]: opacification of the cardiovascular and renal excretory systems | visualization on lateral radiographs of head and thorax [9]: good visualization of the cisterna magna, basal cisterns, and cervical subarachnoid space | LD50 /(95% Confidence Limits) [10]: 19,300 mg I/kg | LD50 at 168 h [11]: 44700 mg/kg
